This note sets out measurements from ChEMBL document CHEMBL4699505, “Lycosquarrines A-R, Lycopodium Alkaloids from Phlegmariurus squarrosus” (J Nat Prod, 2020).

The IC50 is the concentration that inhibits the measured activity by half. By inhibition is commonly meant the relative decrease from the control value, in per cent. Read a low inhibition as little suppression.

SMILES strings stand for the structures.

The target of the first experiment is T1, Acetylcholinesterase (Bos taurus, UniProt P23795).
T1 sequence (P23795 whole entry): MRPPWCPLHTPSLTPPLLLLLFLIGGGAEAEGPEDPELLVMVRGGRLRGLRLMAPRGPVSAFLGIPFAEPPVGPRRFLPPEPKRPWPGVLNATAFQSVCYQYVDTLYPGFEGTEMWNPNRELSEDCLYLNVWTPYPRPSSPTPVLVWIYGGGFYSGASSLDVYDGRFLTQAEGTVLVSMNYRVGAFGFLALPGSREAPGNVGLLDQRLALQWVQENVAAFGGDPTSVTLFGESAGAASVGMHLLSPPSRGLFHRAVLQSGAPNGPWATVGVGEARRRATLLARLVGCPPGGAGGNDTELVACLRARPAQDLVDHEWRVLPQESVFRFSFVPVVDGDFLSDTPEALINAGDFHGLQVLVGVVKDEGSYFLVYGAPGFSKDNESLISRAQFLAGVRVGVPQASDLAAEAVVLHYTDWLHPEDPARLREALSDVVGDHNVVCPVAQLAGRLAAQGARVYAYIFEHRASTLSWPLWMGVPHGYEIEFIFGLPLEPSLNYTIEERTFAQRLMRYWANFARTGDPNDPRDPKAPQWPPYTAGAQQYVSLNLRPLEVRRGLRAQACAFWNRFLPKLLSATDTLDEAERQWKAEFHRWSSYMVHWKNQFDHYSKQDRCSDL
Nature of the experiment: Inhibition of bovine erythrocytes AChE using acetylthiocholine iodide as substrate incubated for 15 to 20 mins by Ellman's methods. More on the design: species or system Erythrocyte.
Settings: not given
Background: Ellman's reagent forms a yellow product with free thiols.
`C/C=C1\[C@H]2C=C(C)C[C@]1(N)c1ccc(=O)[nH]c1C2` [HUPERZINE A] returned a concentration for half-maximal inhibition (IC50) of 0.1 µM. That is a sub-micromolar value.
Take `C/C=C1\[C@H]2C=C(CO)C[C@]1(N)c1ccc(=O)[nH]c1C2`: the IC50 is 2.1 µM.
`C/C=C1\[C@H]2C=C(C(=O)OC)C[C@]1(N)c1ccc(=O)[nH]c1C2` came in with an IC50 of 4.2 µM.

A further experiment addresses T2, Acetylcholinesterase (Bos taurus) (UniProt P23795).
T2 sequence (whole entry): T1 sequence (P23795 whole entry)
Nature of the experiment: Inhibition of bovine erythrocytes AChE using acetylthiocholine iodide as substrate at 100 uM incubated for 15 to 20 mins by Ellman's methods relative to control. It counts as tissue-based. The settings on record: Erythrocyte, time min 15-20.
In turn, `C[C@H]1C[C@@]23[C@H]4CCCN2CC[C@H]2O[C@]23[C@H](C[C@@H]4OC(=O)CCc2ccc(O)cc2)[C@@H]1O` returned an inhibition of under 50%.
Compound `C[C@H]1C[C@]23C4=CCCN2CCC[C@H]3[C@@H](O)C[C@@H]4[C@@H]1O` showed an inhibition of under 50%.
The compound `C[C@@H]1C[C@H]2C[C@H](OC(=O)CCc3ccc(O)cc3)[C@@H]3CCCN4CC[C@H]5O[C@]25[C@]34C1` showed an inhibition of under 50%.
Regarding `C[C@H]1C[C@]23C4=CCCN2CCC[C@@H]3[C@H](O)[C@@H](O)[C@@H]4[C@@H]1O`, the inhibition is under 50%.
Compound `CO[C@@]12C[C@@H]3C[C@@H](C)C[C@@]4(O1)N1CCC[C@@]2(O)[C@]34CCC1` displayed an inhibition of under 50%.
Take `O=c1ccc2c([nH]1)C[C@@H]1C[C@@H](CO)C[C@]23NCCC[C@H]13`: the inhibition is under 50%.
Compound `C[C@@H]1C[C@H]2C[C@@H]3O[C@]24[C@H](O)CCN2CCC[C@@H]3[C@]24C1` had an inhibition of under 50%.
As for `CC(=O)NC1=C2CCC[N+]3([O-])CCC[C@]4(O)[C@H](C1)C[C@@H](C)C[C@]243` (stereo partly specified), the inhibition is under 50%.
For the compound `C[C@@H]1C[C@H]2Cc3[nH]c(=O)ccc3[C@]3(C1)NCC[C@@H](O)[C@H]23`, the inhibition was under 50%.
With `C[C@@H]1C[C@H]2Cc3[nH]c(=O)ccc3[C@@](N)(C1)/C2=C/CO`, the inhibition was under 50%.
Regarding `C[C@H]1CC2=[N+]([O-])CCC[C@]23c2cccnc2C[C@@H]3[C@@H]1O`, the inhibition was under 50%.
In the case of `C[C@@H]1C[C@@]2(O)C[C@@H]3O[C@H]4CC[N+]5([O-])CCC[C@@H]3[C@@]5(C1)[C@]42O` (stereo partly specified), the inhibition is under 50%.
In turn, `C[C@H]1C[C@@]23NCCC[C@@H]2[C@](O)(Cc2ncccc23)[C@H]1O` yielded an inhibition of under 50%.
`C[C@H]1C[C@@]23NCCC[C@@H]2[C@H](Cc2ncccc23)[C@@H]1O` showed an inhibition of under 50%.
In the case of `C[C@@H]1C[C@@]2(O)C[C@H](OC(=O)CCc3ccc(O)cc3)[C@@H]3CCCN4CC[C@H]5O[C@@]52[C@]34C1`, the inhibition is under 50%.
In the case of `C/C=C1\[C@@H]2Cc3[nH]c(=O)ccc3[C@@]1(N)C[C@H](CO)C2`, the inhibition was under 50%.
In the case of `O=C1C[C@@H]2C=C(CO)C[C@@]34[C@@H]1CCCN3CCC[C@H]24`, the inhibition is under 50%.
`C[C@H]1C=C2N3CCC[C@@H]4C(=O)C[C@H]([C@@H]1O)[C@]24CCC3` yielded an inhibition of under 50%.
